US20190111059A1, “COMPOSITIONS AND METHODS FOR TREATING AUTISM SPECTRUM DISORDER” (Marinus Pharmaceuticals, Inc., priority 2017, published 2019)
Entries after “also recorded” stand apart in the source; their conditions may differ. Structures can show the parent of a compound that is named as a salt.

Assays:
[1] = system: children with non-syndromic autism spectrum disorder (ASD) and language impairment; test: Randomized placebo-controlled trial: Social Responsiveness Scale (SRS); type: in vivo, human; conditions: lower = less social symptoms
Source text: The Social Responsiveness Scale (“SRS”) is a 65-item questionnaire that measures social skills across five domains: Social Awareness (8 items, meaningful change 7.1), Social Cognition (12 items, meaningful change 5.8), Social Communication (22 items, meaningful change 4.2), Social Motivation (11 items, meaningful change 5.7), Autistic Mannerisms (12 items, meaningful change 5.5) and total (65 items). Each item is rated 0 to 3 with higher scores indicating greater severity. Standardized T-scores (mean 50, standard deviation 10) range 30-90. This two-arm double-blind randomized placebo-controlled parallel study with a 1:1 allocation was performed at Arkansas Children's Research Institute (Little Rock, Ark., USA) from 4 Jun. 2012 to 22 Nov. 2013. Parent and teacher questionnaires were requested at baseline and 6 and 12 weeks after starting treatment. Parents were asked to deliver baseline questionnaires to teachers or therapists. After the first visit, questionnaires were mailed to the parents and teachers at least 1 week prior to the target date of completion. Parents were asked to bring the completed teacher and parent 12-week questionnaires to the final assessment. Other questionnaires were returned in a preaddressed postage-paid envelope. The target dose of the intervention (INN: DL folinic acid calcium salt; USAN: leucovorin calcium) was 2 mg kg^−1 per day (maximum 50 mg per day) in two equally divided doses with half of the target dose given during the first 2 weeks. Dye-free, milk-product-free, vegetarian capsules were provided in three strengths (5, 10 and 25 mg) by Lee Silsby Compounding Pharmacy (Cleveland Heights, Ohio, USA). Certificate of analysis was provided for each capsule strength by an independent analytical service (Eagle Analytical Services, Houston, Tex., USA) for each batch of capsules produced. In all cases, potency was at least 99%. Secondary outcomes. Secondary outcome measures included the Ohio Autism Clinical Impression Scale (OACIS), Vineland Adaptive Behavior Scale 2nd Edition (VABS) Survey Interview Form and several questionnaires. Parents and teachers were asked to complete the Aberrant Behavior Checklist (ABC), Social Responsiveness Scale (SRS) and Behavioral Assessment System for Children 2nd Edition (BASC). Only parents were asked to complete the Autism Impact Measure (AIM) and Autism Symptoms Questionnaire (ASQ). Secondary outcome measures were analyzed using the mixed-model regression. Because of the large number of secondary outcomes, correction for multiple comparisons was conducted using the false discovery rate.

[2] = system: children with non-syndromic autism spectrum disorder (ASD) and language impairment; test: Randomized placebo-controlled trial: adverse effects monitoring; type: in vivo, human
Source text: Adverse events were monitored every 3 weeks using a modification of the Dosage Record Treatment Emergent Symptom Scale. Adverse events were considered related to the treatment if they started or worsened following the start of the trial. If adverse events were persistent or severe, the parents were offered the option of halving the dose or discontinuing the intervention. The dose could only be reduced once and was never increased if reduced.
The total number of patients reporting each adverse event was compared across treatment groups using a Fisher exact test. Adverse events that were possibly, probably or definitely related to the treatments were analyzed.

[3] = system: children with neurodevelopmental regression and neurological abnormalities (cerebral folate deficiency); conditions: six children with cerebral folate deficiency; cited from earlier work
[4] = system: children with ASD and low CSF folate concentrations; conditions: high-dose; case reports and series; cited from earlier work
[5] = vs placebo, mixed-model regression
[6] = folinic acid group n = 21, 12 weeks

For `Nc1nc2c(c(=O)[nH]1)N(C=O)C(CNc1ccc(C(=O)N[C@@H](CCC(=O)O)C(=O)O)cc1)CN2` (mixture of isomers) [Folinic acid, DL folinic acid calcium salt], the “SRS Motivation, 12-week assessment mean” value ([1]; 2 mg kg^−1 per day, 12 weeks, baseline 75.5) was 70.3 T-Scores, the “SRS Awareness, 12-week assessment mean” value ([1]; 2 mg kg^−1 per day, 12 weeks, baseline 79.2) was 78.7 T-Scores and the “SRS Communication, 12-week assessment mean” value ([1]; 2 mg kg^−1 per day, 12 weeks, baseline 82.5) was 80.1 T-Scores. For the same compound, the “SRS Mannerisms, 12-week assessment mean” value ([1]; 2 mg kg^−1 per day, 12 weeks, baseline 83.4) was 80.5 T-Scores, the “SRS Cognition, 12-week assessment mean” value ([1]; 2 mg kg^−1 per day, 12 weeks, baseline 83.7) was 79.3 T-Scores and the “SRS Total, 12-week assessment mean” value ([1]; 2 mg kg^−1 per day, 12 weeks, baseline 84.9) was 82.2 T-Scores. For the same compound, the “SRS Awareness, estimated effect” value [1, 5] was 0.3 T-Scores, the “SRS Cognition, estimated effect” value [1, 5] was 0.8 T-Scores and the “SRS Communication, estimated effect” value [1, 5] was 1.5 T-Scores. The “SRS Mannerisms, estimated effect” value [1, 5] was 0.9 T-Scores, the “SRS Motivation, estimated effect” value [1, 5] was 0.2 T-Scores and the “SRS Total, estimated effect” value [1, 5] was 0.8 T-Scores. For the same compound, the “Adverse effects, difference between treatment groups (folinic acid vs placebo)” value ([2]; 2 mg kg^−1 per day, 12 weeks, Fisher exact test, calcium salt) was “no significant difference; also recorded: no significant group differences”, the “Aggression, incidence” value [2, 6] was “(10%)” and the “Any adverse effect, incidence” value [2, 6] was “(57%)”. For the same compound, the “Blurred vision, incidence” value [2, 6] was “(0%)”, the “Confusion, incidence” value [2, 6] was “(5%)” and the “Constipation, incidence” value [2, 6] was “(10%)”. The “Decreased appetite, incidence” value [2, 6] was “(10%)”, the “Decreased motor activity, incidence” value [2, 6] was “(0%)” and the “Depression, incidence” value [2, 6] was “(5%)”. The “Diarrhea, incidence” value [2, 6] was “(5%)”, the “Dizziness, incidence” value [2, 6] was “(0%)” and the “Drowsiness, incidence” value [2, 6] was “(0%)”. For the same compound, the “Dry mouth, excessive thirst, incidence” value [2, 6] was “(14%)”, the “Emotional lability, incidence” value [2, 6] was “(5%)” and the “Excitement or agitation, incidence” value [2, 6] was “(29%)”. The “Gastroesophageal reflux, incidence” value [2, 6] was “(5%)”, the “Headache, incidence” value [2, 6] was “(10%)” and the “Increased motor activity, incidence” value [2, 6] was “(29%)”. The “Increased salivation, incidence” value [2, 6] was “(0%)”, the “Increased tantrums, incidence” value [2, 6] was “(5%)” and the “Insomnia, incidence” value [2, 6] was “(29%)”. For the same compound, the “Involuntary movements, incidence” value [2, 6] was “(10%)”, the “Nasal congestion, incidence” value [2, 6] was “(0%)” and the “Nausea/vomiting, incidence” value [2, 6] was “(0%)”. For the same compound, the “Rash, incidence” value [2, 6] was “(0%)”, the “Restlessness, incidence” value [2, 6] was “(14%)” and the “Stiffness, incidence” value [2, 6] was “(5%)”. For the same compound, the “Sweating, incidence” value [2, 6] was “(0%)”, the “Tremors, incidence” value [2, 6] was “(0%)” and the “Weight gain, incidence” value [2, 6] was “(10%)”. For the same compound, the “Weight loss, incidence” value [2, 6] was “(5%)”, the Serious adverse events ([2]; folinic acid group, 2 mg kg^−1 per day, 12 weeks) was “no serious adverse events” and the CSF folate concentrations [3] was “normalized”. For the same compound, the Neurological symptoms [3] was “significantly improved” and the “Symptoms in children with ASD and low CSF folate concentrations” value [4] was “markedly improves symptoms”.
